Source: ChEMBL document CHEMBL4732227, “Discovery of a novel potent cytochrome P450 CYP4Z1 inhibitor” (Eur J Med Chem, 2021)
pIC50: −log10 of the molar value.

Tests used:
[1] = biological target: T1, Cytochrome P450 4Z1 (Homo sapiens, UniProt Q86W10); test: Inhibition of human CYP4Z1 expressed in permeabilized fission AZ3 yeast cells at 100 nM using luciferin-3FBE as substrate incubated for 3 hrs by luminescence based enzyme bag assay relative to control; format: cell-based
T1 sequence (Q86W10 whole entry): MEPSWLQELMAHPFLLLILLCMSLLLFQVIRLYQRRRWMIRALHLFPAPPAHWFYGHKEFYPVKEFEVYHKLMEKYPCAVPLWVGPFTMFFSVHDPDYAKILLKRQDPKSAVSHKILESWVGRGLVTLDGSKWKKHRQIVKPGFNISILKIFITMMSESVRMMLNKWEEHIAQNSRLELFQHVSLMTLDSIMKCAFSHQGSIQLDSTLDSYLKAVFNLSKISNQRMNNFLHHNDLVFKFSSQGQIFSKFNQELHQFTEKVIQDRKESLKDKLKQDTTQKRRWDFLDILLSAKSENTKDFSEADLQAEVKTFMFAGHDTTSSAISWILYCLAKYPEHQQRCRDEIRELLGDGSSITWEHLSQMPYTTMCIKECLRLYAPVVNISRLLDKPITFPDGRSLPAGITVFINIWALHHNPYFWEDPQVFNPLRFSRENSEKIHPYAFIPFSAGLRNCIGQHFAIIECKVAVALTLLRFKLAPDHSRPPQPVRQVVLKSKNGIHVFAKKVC

[2] = biological target: T1, Cytochrome P450 4Z1; test: Inhibition of human CYP4Z1 overexpressed in human MCF7 cells at 1 uM using luciferin-3FBE as substrate incubated for 24 hrs followed by substrate addition by luminescence based assay relative to control; format: cell-based
[3] = biological target: CYP3A4 (Homo sapiens, UniProt P08684); test: Inhibition of human CYP3A4 at 1 uM using luciferin-BE as substrate by enzyme bag based one point inhibition assay relative to control; format: ADME; conditions: enzyme bags, probe luciferin-BE
[4] = biological target: T1, Cytochrome P450 4Z1; test: Inhibition of human CYP4Z1 overexpressed in human MCF7 cells using luciferin-3FBE as substrate incubated for 24 hrs followed by substrate addition by luminescence based assay; format: cell-based
[5] = biological target: CYP2C9 (Homo sapiens, UniProt P11712); test: Inhibition of human CYP2C9 at 1 uM using luciferin-H as substrate by enzyme bag based one point inhibition assay relative to control; format: ADME; conditions: enzyme bags, probe luciferin-H
[6] = biological target: CYP2E1 (Homo sapiens, UniProt P05181); test: Inhibition of human CYP2E1 at 1 uM using luciferin-ME as substrate by enzyme bag based one point inhibition assay relative to control; format: ADME; conditions: enzyme bags, probe luciferin-ME
[7] = biological target: T2, CYP1A2 (Homo sapiens, UniProt P05177); test: Inhibition of human CYP1A2 at 1 uM using luciferin-ME as substrate by enzyme bag based one point inhibition assay relative to control; format: ADME; conditions: enzyme bags, probe luciferin-ME
T2 sequence (P05177 whole entry): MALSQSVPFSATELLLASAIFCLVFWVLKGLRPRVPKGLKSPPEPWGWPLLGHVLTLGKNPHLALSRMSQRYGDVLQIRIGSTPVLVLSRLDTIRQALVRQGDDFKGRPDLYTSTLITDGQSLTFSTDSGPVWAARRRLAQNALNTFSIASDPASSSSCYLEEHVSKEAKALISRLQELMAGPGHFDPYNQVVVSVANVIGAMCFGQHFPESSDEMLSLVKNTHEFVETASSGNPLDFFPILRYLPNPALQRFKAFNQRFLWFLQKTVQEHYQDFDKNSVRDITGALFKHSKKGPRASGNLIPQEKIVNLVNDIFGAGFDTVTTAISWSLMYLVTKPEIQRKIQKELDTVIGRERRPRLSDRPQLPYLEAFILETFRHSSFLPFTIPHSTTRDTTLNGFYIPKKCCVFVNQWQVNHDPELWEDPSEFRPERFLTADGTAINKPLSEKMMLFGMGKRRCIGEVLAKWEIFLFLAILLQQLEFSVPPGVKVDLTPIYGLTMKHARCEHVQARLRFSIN

[8] = biological target: CYP2C19 (Homo sapiens, UniProt P33261); test: Inhibition of human CYP2C19 at 1 uM using luciferin-HEGE as substrate by enzyme bag based one point inhibition assay relative to control; format: ADME; conditions: enzyme bags, probe luciferin-HEGE
[9] = biological target: CYP2D6 (Homo sapiens, UniProt P10635); test: Inhibition of human CYP2D6 at 1 uM using luciferin-MEEGE as substrate by enzyme bag based one point inhibition assay relative to control; format: ADME; conditions: enzyme bags, probe luciferin-MEEGE
[10] = biological target: T1, Cytochrome P450 4Z1; test: Inhibition of human CYP4Z1 overexpressed in human MCF7 cells using luciferin-BE as substrate incubated for 24 hrs followed by substrate addition by luminescence based assay; format: cell-based

Chain of CYP2C19 (P33261 whole entry): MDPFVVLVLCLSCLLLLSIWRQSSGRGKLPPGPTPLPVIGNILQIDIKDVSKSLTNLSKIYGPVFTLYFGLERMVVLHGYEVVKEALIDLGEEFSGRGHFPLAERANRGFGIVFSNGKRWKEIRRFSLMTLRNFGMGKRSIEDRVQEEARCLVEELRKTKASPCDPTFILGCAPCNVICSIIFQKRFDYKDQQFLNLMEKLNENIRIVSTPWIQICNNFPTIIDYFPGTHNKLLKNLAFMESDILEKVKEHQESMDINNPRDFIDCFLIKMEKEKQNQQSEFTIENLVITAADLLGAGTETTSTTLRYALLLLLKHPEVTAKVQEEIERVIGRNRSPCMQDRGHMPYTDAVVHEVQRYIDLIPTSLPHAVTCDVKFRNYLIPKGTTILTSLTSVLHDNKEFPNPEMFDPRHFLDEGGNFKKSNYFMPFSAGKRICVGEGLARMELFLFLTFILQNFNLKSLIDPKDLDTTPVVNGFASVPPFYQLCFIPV
Chain of CYP2D6 (P10635 whole entry): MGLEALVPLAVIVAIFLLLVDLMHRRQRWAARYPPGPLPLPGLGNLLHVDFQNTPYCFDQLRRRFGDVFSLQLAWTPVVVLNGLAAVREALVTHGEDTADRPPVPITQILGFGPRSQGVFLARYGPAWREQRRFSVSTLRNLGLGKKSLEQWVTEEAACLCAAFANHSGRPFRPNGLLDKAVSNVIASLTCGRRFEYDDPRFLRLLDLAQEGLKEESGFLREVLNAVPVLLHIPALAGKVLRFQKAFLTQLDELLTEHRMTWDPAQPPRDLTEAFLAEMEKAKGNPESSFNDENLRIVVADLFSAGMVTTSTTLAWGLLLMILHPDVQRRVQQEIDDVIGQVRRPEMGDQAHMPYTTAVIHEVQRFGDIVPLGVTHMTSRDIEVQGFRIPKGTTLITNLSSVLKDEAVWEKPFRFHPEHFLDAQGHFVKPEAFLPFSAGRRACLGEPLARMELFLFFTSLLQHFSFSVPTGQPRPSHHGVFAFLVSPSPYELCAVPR
Chain of CYP2E1 (P05181 whole entry): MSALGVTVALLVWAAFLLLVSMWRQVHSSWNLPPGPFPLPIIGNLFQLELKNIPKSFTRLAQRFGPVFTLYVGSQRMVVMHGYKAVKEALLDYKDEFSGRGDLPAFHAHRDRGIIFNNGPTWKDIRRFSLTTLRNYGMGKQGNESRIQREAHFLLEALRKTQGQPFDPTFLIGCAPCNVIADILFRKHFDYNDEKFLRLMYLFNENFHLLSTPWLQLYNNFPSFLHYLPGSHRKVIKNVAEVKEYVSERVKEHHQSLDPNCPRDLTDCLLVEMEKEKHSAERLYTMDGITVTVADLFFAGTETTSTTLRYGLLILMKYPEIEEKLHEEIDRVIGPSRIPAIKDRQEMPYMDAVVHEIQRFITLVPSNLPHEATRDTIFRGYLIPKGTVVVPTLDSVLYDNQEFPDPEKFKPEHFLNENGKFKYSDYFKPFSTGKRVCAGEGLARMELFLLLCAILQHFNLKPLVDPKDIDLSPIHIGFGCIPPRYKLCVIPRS
Chain of CYP3A4 (P08684 whole entry): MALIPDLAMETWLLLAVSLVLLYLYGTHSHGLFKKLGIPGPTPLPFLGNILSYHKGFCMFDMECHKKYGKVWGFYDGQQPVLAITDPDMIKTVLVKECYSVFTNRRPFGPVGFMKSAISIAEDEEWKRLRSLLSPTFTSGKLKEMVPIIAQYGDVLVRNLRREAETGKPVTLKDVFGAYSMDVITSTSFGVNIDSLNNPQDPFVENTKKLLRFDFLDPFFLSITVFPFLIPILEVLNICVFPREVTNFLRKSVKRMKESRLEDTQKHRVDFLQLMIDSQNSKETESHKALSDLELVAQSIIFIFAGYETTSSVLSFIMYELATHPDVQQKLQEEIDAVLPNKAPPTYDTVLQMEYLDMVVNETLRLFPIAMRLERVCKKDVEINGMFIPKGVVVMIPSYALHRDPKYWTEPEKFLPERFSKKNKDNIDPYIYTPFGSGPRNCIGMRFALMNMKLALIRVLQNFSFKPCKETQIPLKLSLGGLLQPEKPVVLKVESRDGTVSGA
Chain of CYP2C9 (P11712 whole entry): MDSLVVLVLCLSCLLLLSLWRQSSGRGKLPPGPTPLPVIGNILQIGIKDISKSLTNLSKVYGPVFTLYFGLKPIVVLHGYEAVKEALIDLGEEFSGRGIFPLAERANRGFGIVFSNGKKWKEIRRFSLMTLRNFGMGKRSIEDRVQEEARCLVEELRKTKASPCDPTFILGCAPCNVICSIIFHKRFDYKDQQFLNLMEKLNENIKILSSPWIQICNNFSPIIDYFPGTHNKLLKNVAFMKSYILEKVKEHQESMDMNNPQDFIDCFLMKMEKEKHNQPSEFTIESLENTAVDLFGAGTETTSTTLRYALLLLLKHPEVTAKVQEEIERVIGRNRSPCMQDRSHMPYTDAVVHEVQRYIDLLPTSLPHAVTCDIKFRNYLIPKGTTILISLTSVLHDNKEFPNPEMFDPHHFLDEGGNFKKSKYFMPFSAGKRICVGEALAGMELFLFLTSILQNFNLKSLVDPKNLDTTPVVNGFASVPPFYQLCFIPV

Compound	inhibition at 0.1 µM [1] [%]	inhibition at 1 µM [2] [%]	inhibition at 1 µM [3] [%]	inhibition at 1 µM [5] [%]	inhibition at 1 µM [6] [%]	inhibition at 1 µM [7] [%]	inhibition at 1 µM [8] [%]	inhibition at 1 µM [9] [%]	pIC50 [4]	pIC50 [10]
CC1CCN(C(=O)c2cccc(OCC(=O)O)c2)CC1n1ccnc1 (stereo unspecified)	13	22								
Cn1cnc2cc(C(=O)Nc3ccc(Oc4nn[nH]n4)cc3)ccc21	5	10								
c1ccc(Cn2ccnc2)cc1	9	0							5.17	5.23

Second part, led by results:

inhibition at 0.1 µM [1] [%]	inhibition at 1 µM [2] [%]	inhibition at 1 µM [3] [%]	inhibition at 1 µM [5] [%]	inhibition at 1 µM [6] [%]	inhibition at 1 µM [7] [%]	inhibition at 1 µM [8] [%]	inhibition at 1 µM [9] [%]	Compound	pIC50 [4]	pIC50 [10]
21	24							O=C(O)/C=C/c1ccc(Cn2ccnc2)cc1 [OZAGREL]		
36	82	12	-0.2	54	2.7	1.4	-5.8	O=C(O)c1cccc(CNC(=O)c2ccc(-n3ccnc3)cc2)c1	7.20	
1	12							O=C(O)CCC1CCCN(C(=O)c2ccc(Cn3ccnc3)cc2)C1 (stereo unspecified)		
